Measurements taken from ChEMBL document CHEMBL4507296 (2021).

Columns and labels:
[1] = target: Gastrin/cholecystokinin type B receptor (Homo sapiens) (UniProt P32239); test: CCK2 (human) CEREP ligand profiling; details: Compound concentration 10.0 uM
[2] = target: Mitogen-activated protein kinase kinase kinase 12 (Homo sapiens) (UniProt Q12852); details: Compound concentration 1000.0 nM
[3] = target: Serine/threonine-protein kinase 3 (Homo sapiens) (UniProt Q13188); details: Compound concentration 1000.0 nM
[4] = target: Ephrin type-B receptor 1 (Homo sapiens) (UniProt P54762); details: Compound concentration 1000.0 nM
[5] = target: Histamine H1 receptor (Homo sapiens) (UniProt P35367); details: Compound concentration 10.0 uM
[6] = target: Rhodopsin kinase GRK7 (Homo sapiens) (UniProt Q8WTQ7); details: Compound concentration 1000.0 nM
[7] = target: AP2-associated protein kinase 1 (Homo sapiens) (UniProt Q2M2I8); details: Compound concentration 1000.0 nM
[8] = target: Phosphatidylinositol 4-phosphate 5-kinase type-1 gamma (Homo sapiens) (UniProt O60331); details: Compound concentration 1000.0 nM
[9] = target: Ribosomal protein S6 kinase alpha-6 (Homo sapiens) (UniProt Q9UK32); details: Compound concentration 1000.0 nM
[10] = target: Leukocyte tyrosine kinase receptor (Homo sapiens) (UniProt P29376); details: Compound concentration 1000.0 nM
[11] = target: 5-hydroxytryptamine receptor 3A (Homo sapiens) (UniProt P46098); details: Compound concentration 10.0 uM
[12] = target: Receptor-interacting serine/threonine-protein kinase 1 (Homo sapiens) (UniProt Q13546); details: Compound concentration 1000.0 nM
[13] = target: Epithelial discoidin domain-containing receptor 1 (Homo sapiens) (UniProt Q08345); details: Compound concentration 1000.0 nM
[14] = target: Mitogen-activated protein kinase 9 (Homo sapiens) (UniProt P45984); details: Compound concentration 1000.0 nM
[15] = target: Muscarinic acetylcholine receptor M3 (Homo sapiens) (UniProt P20309); test: Muscarinic M3 (human) CEREP ligand profiling; details: Compound concentration 10.0 uM
[16] = tested on: Tyrosine-protein kinase ABL1 (Homo sapiens), P00519 [F317I]; details: Compound concentration 1000.0 nM
[17] = target: Inhibitor of nuclear factor kappa-B kinase subunit beta (Homo sapiens) (UniProt O14920); details: Compound concentration 1000.0 nM
[18] = target: Serine/threonine-protein kinase PLK3 (Homo sapiens) (UniProt Q9H4B4); details: Compound concentration 1000.0 nM
[19] = target: Vascular endothelial growth factor receptor 3 (Homo sapiens) (UniProt P35916); details: Compound concentration 1000.0 nM
[20] = target: Serine/threonine-protein kinase PAK 5 (Homo sapiens) (UniProt Q9P286); details: Compound concentration 1000.0 nM
[21] = target: 5-hydroxytryptamine receptor 7 (Homo sapiens) (UniProt P34969); details: Compound concentration 10.0 uM
[22] = target: Serine/threonine-protein kinase DCLK1 (Homo sapiens) (UniProt O15075); details: Compound concentration 1000.0 nM
[23] = target: Serine/threonine-protein kinase ULK2 (Homo sapiens) (UniProt Q8IYT8); details: Compound concentration 1000.0 nM
[24] = target: Ribosomal protein S6 kinase alpha-4 (Homo sapiens) (UniProt O75676); details: Compound concentration 1000.0 nM
[25] = target: Protein kinase C iota type (Homo sapiens) (UniProt P41743); details: Compound concentration 1000.0 nM
[26] = target: Activin receptor type-1B (Homo sapiens) (UniProt P36896); details: Compound concentration 1000.0 nM
[27] = target: Tyrosine-protein kinase Lyn (Homo sapiens) (UniProt P07948); details: Compound concentration 1000.0 nM
[28] = tested on: Tyrosine-protein kinase ABL1 (Homo sapiens), P00519 [Q252H]; details: Compound concentration 1000.0 nM
[29] = target: Serine/threonine-protein kinase pim-3 (Homo sapiens) (UniProt Q86V86); details: Compound concentration 1000.0 nM
[30] = target: Ephrin type-A receptor 3 (Homo sapiens) (UniProt P29320); details: Compound concentration 1000.0 nM
[31] = tested on: Epidermal growth factor receptor (Homo sapiens), P00533 [T790M]; details: Compound concentration 1000.0 nM
[32] = target: Ribosomal protein S6 kinase alpha-6 (Homo sapiens) (UniProt Q9UK32); details: Compound concentration 1000.0 nM; remark: listed apart in the source
[33] = target: Maternal embryonic leucine zipper kinase (Homo sapiens) (UniProt Q14680); details: Compound concentration 1000.0 nM
[34] = target: Cyclin-dependent kinase-like 5 (Homo sapiens) (UniProt O76039); details: Compound concentration 1000.0 nM
[35] = tested on: Phosphatidylinositol 4,5-bisphosphate 3-kinase catalytic subunit alpha isoform (Homo sapiens), P42336 [E545K]; details: Compound concentration 1000.0 nM
[36] = tested on: Epidermal growth factor receptor (Homo sapiens), P00533 [UNDEFINED MUTATION]; details: Compound concentration 1000.0 nM
[37] = tested on: ALK tyrosine kinase receptor (Homo sapiens), Q9UM73 [C1156Y]; details: Compound concentration 1000.0 nM
[38] = target: Serine/threonine-protein kinase NIM1 (Homo sapiens) (UniProt Q8IY84); details: Compound concentration 1000.0 nM
[39] = target: 5-hydroxytryptamine receptor 2C (Homo sapiens) (UniProt P28335); details: Compound concentration 10.0 uM
[40] = target: Homeodomain-interacting protein kinase 3 (Homo sapiens) (UniProt Q9H422); details: Compound concentration 1000.0 nM
[41] = target: Mitogen-activated protein kinase 1 (Homo sapiens) (UniProt P28482); details: Compound concentration 1000.0 nM
[42] = target: 5-hydroxytryptamine receptor 5A (Homo sapiens) (UniProt P47898); details: Compound concentration 10.0 uM
[43] = target: Casein kinase II subunit alpha (Homo sapiens) (UniProt P68400); details: Compound concentration 1000.0 nM
[44] = target: Tyrosine-protein kinase Srms (Homo sapiens) (UniProt Q9H3Y6); details: Compound concentration 1000.0 nM
[45] = target: Serine/threonine-protein kinase WNK1 (Homo sapiens) (UniProt Q9H4A3); details: Compound concentration 1000.0 nM
[46] = tested on: Mast/stem cell growth factor receptor Kit (Homo sapiens), P10721 [L576P]; details: Compound concentration 1000.0 nM

Chain of Ribosomal protein S6 kinase alpha-6 (Homo sapiens) (Q9UK32 whole entry): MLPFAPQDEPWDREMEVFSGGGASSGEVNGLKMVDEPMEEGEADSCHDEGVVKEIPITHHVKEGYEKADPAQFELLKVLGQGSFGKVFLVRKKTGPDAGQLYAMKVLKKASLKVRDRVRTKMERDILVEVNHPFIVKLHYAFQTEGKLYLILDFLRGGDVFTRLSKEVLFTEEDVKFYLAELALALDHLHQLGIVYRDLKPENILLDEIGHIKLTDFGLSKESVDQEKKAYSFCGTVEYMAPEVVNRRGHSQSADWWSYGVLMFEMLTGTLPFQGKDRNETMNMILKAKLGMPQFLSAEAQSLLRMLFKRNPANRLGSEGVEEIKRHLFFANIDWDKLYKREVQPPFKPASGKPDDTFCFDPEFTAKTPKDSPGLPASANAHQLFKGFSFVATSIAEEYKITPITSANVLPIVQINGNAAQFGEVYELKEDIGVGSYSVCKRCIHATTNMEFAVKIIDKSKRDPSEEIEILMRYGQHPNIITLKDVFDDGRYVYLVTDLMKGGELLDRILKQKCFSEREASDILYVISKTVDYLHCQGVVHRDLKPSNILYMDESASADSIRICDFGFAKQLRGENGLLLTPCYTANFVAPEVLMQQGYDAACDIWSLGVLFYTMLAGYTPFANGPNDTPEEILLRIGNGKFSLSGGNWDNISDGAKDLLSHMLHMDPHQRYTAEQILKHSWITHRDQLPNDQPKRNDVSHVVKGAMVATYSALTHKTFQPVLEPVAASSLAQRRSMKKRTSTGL
Chain of 5-hydroxytryptamine receptor 5A (Homo sapiens) (P47898 whole entry): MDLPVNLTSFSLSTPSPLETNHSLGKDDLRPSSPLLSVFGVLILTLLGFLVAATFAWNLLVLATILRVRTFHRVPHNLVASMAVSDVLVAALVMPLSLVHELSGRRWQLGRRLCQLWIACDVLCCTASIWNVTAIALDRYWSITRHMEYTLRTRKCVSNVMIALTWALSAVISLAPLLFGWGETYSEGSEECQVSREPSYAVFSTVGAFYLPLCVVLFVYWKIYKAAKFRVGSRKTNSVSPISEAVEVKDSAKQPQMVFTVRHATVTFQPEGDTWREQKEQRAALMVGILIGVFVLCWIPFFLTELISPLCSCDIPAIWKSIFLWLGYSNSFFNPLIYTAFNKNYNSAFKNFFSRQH
Chain of Serine/threonine-protein kinase 3 (Homo sapiens) (Q13188 whole entry): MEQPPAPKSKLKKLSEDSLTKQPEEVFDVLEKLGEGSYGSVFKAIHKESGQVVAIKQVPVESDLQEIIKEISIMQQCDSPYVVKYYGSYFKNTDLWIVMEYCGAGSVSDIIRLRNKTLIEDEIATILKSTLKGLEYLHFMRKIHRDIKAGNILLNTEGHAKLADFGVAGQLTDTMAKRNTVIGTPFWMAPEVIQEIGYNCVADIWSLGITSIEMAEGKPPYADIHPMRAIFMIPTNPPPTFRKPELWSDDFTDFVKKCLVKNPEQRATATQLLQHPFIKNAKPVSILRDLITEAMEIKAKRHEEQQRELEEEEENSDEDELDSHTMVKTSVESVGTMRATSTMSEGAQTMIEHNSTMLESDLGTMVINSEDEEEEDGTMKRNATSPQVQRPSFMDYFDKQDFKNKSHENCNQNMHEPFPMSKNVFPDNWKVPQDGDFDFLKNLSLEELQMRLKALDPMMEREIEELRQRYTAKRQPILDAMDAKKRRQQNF
Chain of Protein kinase C iota type (Homo sapiens) (P41743 whole entry): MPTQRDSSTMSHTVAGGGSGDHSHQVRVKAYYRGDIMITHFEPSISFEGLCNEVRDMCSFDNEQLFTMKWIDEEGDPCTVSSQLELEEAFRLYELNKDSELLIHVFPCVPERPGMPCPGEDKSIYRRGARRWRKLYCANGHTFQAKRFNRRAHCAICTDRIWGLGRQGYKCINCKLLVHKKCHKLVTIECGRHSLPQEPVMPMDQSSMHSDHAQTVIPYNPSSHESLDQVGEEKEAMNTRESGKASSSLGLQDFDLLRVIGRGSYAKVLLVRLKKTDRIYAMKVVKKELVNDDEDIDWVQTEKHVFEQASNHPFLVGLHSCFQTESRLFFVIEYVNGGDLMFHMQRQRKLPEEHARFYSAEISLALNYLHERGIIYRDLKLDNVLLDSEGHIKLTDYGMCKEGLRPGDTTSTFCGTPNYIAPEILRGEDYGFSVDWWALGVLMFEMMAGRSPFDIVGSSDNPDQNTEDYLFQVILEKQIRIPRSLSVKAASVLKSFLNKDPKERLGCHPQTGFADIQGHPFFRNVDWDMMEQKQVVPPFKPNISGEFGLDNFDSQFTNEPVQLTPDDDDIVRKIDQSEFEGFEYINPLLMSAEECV
Chain of Phosphatidylinositol 4,5-bisphosphate 3-kinase catalytic subunit alpha isoform (Homo sapiens), P42336 [E545K] (P42336 whole entry E545K, canonical isoform): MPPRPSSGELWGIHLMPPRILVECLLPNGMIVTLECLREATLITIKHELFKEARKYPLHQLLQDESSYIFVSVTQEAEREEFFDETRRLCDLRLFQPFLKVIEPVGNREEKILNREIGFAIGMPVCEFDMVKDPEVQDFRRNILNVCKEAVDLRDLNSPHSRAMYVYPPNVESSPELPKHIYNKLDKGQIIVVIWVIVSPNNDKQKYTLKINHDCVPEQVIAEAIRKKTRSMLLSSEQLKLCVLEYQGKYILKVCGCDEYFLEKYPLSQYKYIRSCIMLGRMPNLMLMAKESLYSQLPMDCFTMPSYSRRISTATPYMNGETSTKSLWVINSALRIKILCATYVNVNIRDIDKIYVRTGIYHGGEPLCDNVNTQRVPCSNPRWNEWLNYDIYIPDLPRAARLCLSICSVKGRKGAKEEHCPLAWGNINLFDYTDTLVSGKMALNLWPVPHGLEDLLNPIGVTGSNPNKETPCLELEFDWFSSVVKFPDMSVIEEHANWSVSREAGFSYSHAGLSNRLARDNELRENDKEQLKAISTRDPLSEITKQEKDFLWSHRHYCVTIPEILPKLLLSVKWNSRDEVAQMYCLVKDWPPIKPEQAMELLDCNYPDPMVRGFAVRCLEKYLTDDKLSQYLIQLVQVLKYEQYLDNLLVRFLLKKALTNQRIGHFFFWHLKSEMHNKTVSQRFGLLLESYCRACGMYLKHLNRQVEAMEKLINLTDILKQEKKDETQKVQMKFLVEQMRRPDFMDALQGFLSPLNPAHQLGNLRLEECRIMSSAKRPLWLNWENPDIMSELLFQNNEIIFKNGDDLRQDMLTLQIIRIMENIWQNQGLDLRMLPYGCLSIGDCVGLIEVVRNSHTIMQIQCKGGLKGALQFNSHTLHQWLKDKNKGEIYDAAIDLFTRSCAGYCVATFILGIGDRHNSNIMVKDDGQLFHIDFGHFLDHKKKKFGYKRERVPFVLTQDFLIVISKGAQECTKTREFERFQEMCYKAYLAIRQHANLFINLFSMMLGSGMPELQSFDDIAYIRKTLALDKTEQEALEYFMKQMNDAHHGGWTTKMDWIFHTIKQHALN
Chain of Vascular endothelial growth factor receptor 3 (Homo sapiens) (P35916 whole entry): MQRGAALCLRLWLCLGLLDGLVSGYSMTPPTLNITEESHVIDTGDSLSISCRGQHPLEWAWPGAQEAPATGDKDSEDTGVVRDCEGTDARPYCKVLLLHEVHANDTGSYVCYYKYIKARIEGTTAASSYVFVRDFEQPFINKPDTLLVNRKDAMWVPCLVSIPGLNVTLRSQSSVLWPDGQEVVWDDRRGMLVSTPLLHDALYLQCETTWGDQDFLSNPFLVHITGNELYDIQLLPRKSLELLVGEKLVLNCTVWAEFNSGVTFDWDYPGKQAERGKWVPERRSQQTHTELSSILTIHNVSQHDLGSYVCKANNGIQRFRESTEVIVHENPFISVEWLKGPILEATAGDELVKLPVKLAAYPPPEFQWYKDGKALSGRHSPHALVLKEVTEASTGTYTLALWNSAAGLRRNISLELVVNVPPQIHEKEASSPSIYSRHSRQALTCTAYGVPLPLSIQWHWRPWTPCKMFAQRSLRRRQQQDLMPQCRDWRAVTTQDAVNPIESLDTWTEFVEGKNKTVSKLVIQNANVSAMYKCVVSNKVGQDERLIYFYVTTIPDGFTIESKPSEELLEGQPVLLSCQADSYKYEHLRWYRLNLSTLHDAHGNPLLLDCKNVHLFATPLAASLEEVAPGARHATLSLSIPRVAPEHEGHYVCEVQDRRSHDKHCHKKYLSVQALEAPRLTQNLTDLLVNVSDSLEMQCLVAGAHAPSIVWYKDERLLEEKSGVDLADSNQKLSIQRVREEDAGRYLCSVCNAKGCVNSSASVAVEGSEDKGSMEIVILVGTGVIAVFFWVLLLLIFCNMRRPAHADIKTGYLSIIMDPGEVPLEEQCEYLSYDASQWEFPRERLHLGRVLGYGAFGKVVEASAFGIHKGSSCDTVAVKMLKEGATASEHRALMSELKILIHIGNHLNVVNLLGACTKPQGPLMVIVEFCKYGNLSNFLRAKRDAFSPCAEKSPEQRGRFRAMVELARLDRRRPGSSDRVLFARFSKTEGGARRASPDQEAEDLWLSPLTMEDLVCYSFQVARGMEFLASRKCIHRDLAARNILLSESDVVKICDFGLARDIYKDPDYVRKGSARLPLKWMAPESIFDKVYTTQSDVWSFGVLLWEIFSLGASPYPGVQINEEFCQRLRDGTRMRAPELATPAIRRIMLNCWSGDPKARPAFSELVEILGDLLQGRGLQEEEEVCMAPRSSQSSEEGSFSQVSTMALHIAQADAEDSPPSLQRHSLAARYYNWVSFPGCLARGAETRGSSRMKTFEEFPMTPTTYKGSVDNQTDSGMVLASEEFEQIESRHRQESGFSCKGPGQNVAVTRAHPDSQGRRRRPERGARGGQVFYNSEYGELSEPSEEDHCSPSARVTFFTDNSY
Chain of Mitogen-activated protein kinase 9 (Homo sapiens) (P45984 whole entry, looked up): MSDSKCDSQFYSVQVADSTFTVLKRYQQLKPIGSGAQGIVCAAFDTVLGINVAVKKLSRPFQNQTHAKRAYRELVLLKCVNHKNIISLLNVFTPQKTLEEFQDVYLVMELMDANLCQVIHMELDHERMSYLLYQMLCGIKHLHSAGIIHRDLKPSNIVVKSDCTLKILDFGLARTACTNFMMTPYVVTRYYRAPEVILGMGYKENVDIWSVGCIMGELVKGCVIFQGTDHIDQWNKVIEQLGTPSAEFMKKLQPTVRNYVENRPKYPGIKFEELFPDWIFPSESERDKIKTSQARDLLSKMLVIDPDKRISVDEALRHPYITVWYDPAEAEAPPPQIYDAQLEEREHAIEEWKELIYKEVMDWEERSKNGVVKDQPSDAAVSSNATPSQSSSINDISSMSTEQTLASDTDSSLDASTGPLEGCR

C[C@H](c1ccc(F)cc1)N(Cc1cccc(C(=O)O)c1)C(=O)c1cnc2ccccc2c1 [PF-05105679]
inactive: inhibition [1] 35% | residual activity [2] 100% | residual activity [3] 100% | residual activity [4] 83% | inhibition [5] 22.9% | residual activity [6] 100% | residual activity [7] 100% | residual activity [8] 100% | residual activity [9] 100% | residual activity [10] 90% | inhibition [11] -1.19% | residual activity [12] 100% | residual activity [13] 100% | residual activity [14] 81% | inhibition [15] 21% | residual activity [16] 72% | residual activity [17] 100% | residual activity [18] 100% | residual activity [19] 95% | residual activity [20] 93% | inhibition [21] -2.7% | residual activity [22] 100% | residual activity [23] 81% | residual activity [24] 100% | residual activity [25] 100% | residual activity [26] 100% | residual activity [27] 100% | residual activity [28] 90% | residual activity [29] 100% | residual activity [30] 85% | residual activity [31] 100% | residual activity [32] 100% | residual activity [33] 100% | residual activity [34] 100% | residual activity [35] 100% | residual activity [36] 100% | residual activity [37] 69% | residual activity [38] 79% | inhibition [39] 6.54% | residual activity [40] 100% | residual activity [41] 99% | inhibition [42] -1.89% | residual activity [43] 100% | residual activity [44] 100% | residual activity [45] 100% | residual activity [46] 94%
